Test results reported in US20060159746A1, “Compositions comprising fatty acids and amino acids” (priority 2003, published 2006).
Marks after values point to notes of the source that are not given here.

Tests used:
Assay type in all cases: in vivo
[1] = system: Lepr db/db mice; experiment: Fasting plasma lipids (TG, TC) in Lepr db/db mice fed different fatty acids; conditions: after diet feeding
Procedure: (§1) C57BLKS/J-Lepr^db/db male mice (4 wks of age) were obtained from Jackson Laboratory, Bar Harbor, Me. Mice were initially maintained on commercial chow for 2 wks, followed by a purified stabilization diet providing 40% en as fat and 2% en as linoleic acid (LA, 18:2n-6) for another 2 wks. At 8 wks of age, a baseline oral glucose tolerance test was conducted. Based on their OGTT profile, mice were evenly distributed among 6 groups (n=6 per each group) and were fed one of 6 experimental diets designed to establish the relative importance of specific fatty acid supplementation on ameliorating insulin resistance.
(§2) Table 1 gives the predicted fatty acid profile (% en) for the 6 experimental diets. The control diet, based on butter and palm oil blend, provided 40% en as fat with 2% en as LA. […] These Lepr db/db mice were fed one of the above 6 diets for 6 weeks.
(§3) Body weights of animals were recorded each week. Insulin tolerance testing was performed after 6 weeks of dietary intervention. Mice (non-fasted) were injected intraperitoneally with 1.5 U/kg human insulin and blood glucose concentrations were determined at 0, 15, 30 and 60 min after insulin injection by tail bleeding, using a glucometer. A week later, fasting blood samples were collected by cardiac puncture, under Co2/O2 anesthesia, for analysis of plasma insulin, triglyceride (TG) and total cholesterol (TC). […] Plasma insulin was determined using the RIA kit (Linco research Inc, MO).

[2] = Body weight and weight gain of Lepr db/db mice fed different fatty acid diets for 6 wks; conditions: for Body wt at 6 wks: 6 wks after dietary intervention; for Wt gain at 6 wks: 6 wks of diet
Procedure: as §1, §2, §3

[3] = system: Lepr db/db mice; experiment: Insulin tolerance testing (blood glucose after i.p. human insulin) after 6 weeks of dietary intervention; conditions: 1.5 U/kg human insulin i.p.
Procedure: as §1, §2, §3

[4] = system: Lepr db mouse; experiment: OGT (1 g glucose/kg) combined with oral administration of the active ingredient; postprandial glucose and insulin; parameters: Serum insulin levels: unit not given here; conditions: for Serum glucose levels: in mg/dL (unit assumed)
Procedure: Acute effects of a nutritional formula, Starlix® and 4-HI on glycemic control in the type 2 diabetes animal model (Lepr db mouse) were studied. Animals underwent an OGT (1 g glucose/kg) combined with oral administration of the active ingredient. The following groups were tested: (A) placebo (2% Tween 80, 20 ml/kg), (B) 4-HI (100 mg/kg), (C) guar gum (150 mg/kg), (D) Starlix® (65 mg/kg), (E) Starlix®+4-HI, and (F) Starlix®+guar gum. Postprandial glucose and insulin were studied at 0, 30, 60 and 90 min.

| SMILES | Fasting plasma TC [1] | Fasting plasma TG [1] | Body wt at 6 wks [2] | Wt gain at 6 wks [2] | Mean blood glucose values (percentage of intial) after insulin administration ([3]; 0 min, non-fasted) | Mean blood glucose values (percentage of intial) after insulin administration ([3]; 15 min) | Mean blood glucose values (percentage of intial) after insulin administration ([3]; 30 min) | Mean blood glucose values (percentage of intial) after insulin administration ([3]; 60 min) | Serum insulin levels ([4]; 0 min of OGT) | Serum glucose levels ([4]; 0 min of OGT) | Serum insulin levels ([4]; 30 min of OGT) | Serum glucose levels ([4]; 30 min of OGT) | Serum insulin levels ([4]; 60 min of OGT) | Serum glucose levels ([4]; 60 min of OGT) | Serum insulin levels ([4]; 90 min of OGT) | Serum glucose levels ([4]; 90 min of OGT) | Hypoglycemic effect, in words ([4]; serum glucose in OGT) |
| --- | --- | --- | --- | --- | --- | --- | --- | --- | --- | --- | --- | --- | --- | --- | --- | --- | --- |
| CC/C=C\C/C=C\C/C=C\CCCCCCCC(=O)O [LNA, linolenic acid] | 326 ± 13^ mg/dl | 142 ± 27^b mg/dl | 50.5 ± 2.4 g | 8.3 ± 4 g | 100 percentage of intial | 138 percentage of intial | 127 percentage of intial | 100 percentage of intial |  |  |  |  |  |  |  |  |  |
| C[C@@H]([C@H](C)O)[C@H](N)C(=O)O [4HI, 4-hydroxyisoleucine] |  |  |  |  |  |  |  |  | 8.17 | 227.7 | 11.27 | 473.7 | 6.41 | 494.7 | 4.63 | 584 |  |
| CC/C=C\C/C=C\C/C=C\C/C=C\C/C=C\C/C=C\CCC(=O)O [DHA, docosahexaenoic acid] | 288 ± 39 ^ mg/dl | 101 ± 14^a,c mg/dl | 48.9 ± 3.8 g | 6.1 ± 5.2 g | 100 percentage of intial | 131 percentage of intial | 120 percentage of intial | 99 percentage of intial |  |  |  |  |  |  |  |  |  |
| CC(C)[C@H]1CC[C@H](C(=O)N[C@H](Cc2ccccc2)C(=O)O)CC1 [Starlix, nateglinide] |  |  |  |  |  |  |  |  | 9.8 | 210 | 11.18 | 456.7 | 5.38 | 497.3 | 3.75 | 599 | significant hypoglycemic effect at T90 |
| CCCCC/C=C\C/C=C\CCCCCCCC(=O)O [LA, linoleic acid] | 313 ± 28 ^ mg/dl | 120 ± 24^a,b mg/dl | 43.9 ± 5.4 g | 2.5 ± 4.3 g | 100 percentage of intial | 135 percentage of intial | 115 percentage of intial | 85 percentage of intial |  |  |  |  |  |  |  |  |  |
